Measurements: patent US5919668A, “Non-reducing saccharide and its production and use” (Kabushiki Kaisha Hayashibara Seibutsu Kagaku Kenkyujo, priority 1994, dated 1999)

Columns and labels:
pig kidney trehalase = assay: Degradation by pig kidney trehalase; assay type: biochemical; details: trehalose, or trehalose formed from PI-PV; pH5.7, 37° C., 18 hours for the latter
Protocol: In order to purify trehalose from respective reaction products, they were decolored, deionized, concentrated and subjected to column fractionation on a strongly-acidic cation exchange of sodium form "XT-1016", followed by recovering high-purity fractions with trehalose contents of 97% or higher. The fractions were then concentrated to about 65% and allowed to standing at 25° C. for 2 days to crystallize out crystalline trehalose hydrate which was then separated and dried in vacuo to obtain a high-purity preparation with a trehalose content of 99% or higher. The yields against respective starting substrates on dry solid basis were as follows: from glycosyl trehalose, 9.5%; from maltosyl trehalose, 14.9%; from maltotriosyl trehalose, 16.0%; from maltotetraosyl trehalose, 18.5%; and from maltopentaosyl trehalose, 17.7%. […] As evident from the above results, the saccharides formed by subjecting alpha-glycosyl trehaloses to the trehalose-releasing enzyme were identified to be trehalose.

[1] = Reducing power by the Somogyi-Nelson method, represented in terms of DE; assay type: physicochemical; details: high-purity preparations, Somogyi-Nelson method
Protocol: The high-purity preparations of the newly formed saccharides were determined for reducing power by the Somogyi-Nelson method and represented in terms of DE.

mice = assay: Acute toxicity test, oral administration in mice; assay type: in vivo; details: oral, mice
Protocol: Acute toxicity tests were conducted on the non-reducing saccharide preparations PI, PII, PIII, PIV and PV prepared in Experiment 4, where they were orally administered to 7 week-old dd mice. […] Thus the LD50 of these saccharides was at least 50 g/kg or higher.
An acute toxicity test was conducted on a high-purity trehalose preparation obtained by the method in Experiment 17, purity of 99.5%, where it was orally administered in mice. […] Thus its LD50 would be briefly 50 g/kg or higher.

glucoamylase = assay: Enzymatic hydrolysis by glucoamylase; assay type: biochemical
Protocol: Fifty milligrams of the non-reducing saccharide preparation PI, PII, PIII, PIV or PV prepared in Experiment 4 was dissolved in 1 ml of 50 mM acetate buffer (pH4.5), added with one unit of the glucoamylase commercialized by Seikagaku Corp., Tokyo, Japan, incubated at 40° C. for 6 hours for enzymatic hydrolysis and analyzed for degradation products on high-performance liquid chromatography, thus detecting glucose and trehalose as sole products. The noted glucose contents, trehalose contents and their molar ratios were as shown in Table 5.

[2] = tested on: pig pancreas alpha-amylase; assay: Degradation by pig pancreas alpha-amylase; assay type: biochemical
Protocol: (§1) The non-reducing saccharide preparations PI, PII, PIII, PIV and PV as substrates prepared in Experiment 4 were subjected to pig pancreas alpha-amylase, rice alpha-glucosidase and acetone-pulverized rat small intestine enzyme, all of which were products of Sigma Chemical Co., St Louis, Mo., USA, and the degradation products were analyzed on high-performance liquid chromatography for saccharide composition. The reaction by alpha-amylase was carried out by dissolving 10 mg of either substrate in 1 ml of 50 mM phosphate buffer (pH6.9), adding thereto one unit of alpha-amylase and incubating at 37° C. for 18 hours. The reaction by alpha-glucosidase was conducted similarly as in the case of alpha-amylase except that 50 mM acetate buffer (pH4.0) was used. In the case of acetone-pulverized rat small intestine enzyme, the reaction was conducted similarly as in the case of alpha-amylase except that 50 mM maleic acid buffer (pH6.0) was used.

[3] = tested on: acetone-pulverized rat small intestine enzyme; assay: Degradation by acetone-pulverized rat small intestine enzyme; assay type: biochemical
Protocol: as §1

beta-amylase = assay: Degradation by beta-amylase; assay type: biochemical
Description: Considering the reaction characteristics of glucoamylase, these saccharides very likely bear structures where glucose molecule(s) is bound to trehalose molecule via alpha1,4 or alpha-1,6 linkage: Saccharide PI is a non-reducing saccharide with a glucose polymerization degree of 3 where one glucose molecule is bound to one trehalose molecule; saccharide PII, another non-reducing saccharide with a glucose polymerization degree of 4 where two glucose molecules are bound to one trehalose molecule; saccharide PIII, still another non-reducing saccharide with a glucose polymerization degree of 5 where three glucose molecules are bound to one trehalose molecule; saccharide PIV, still another non-reducing saccharide with a glucose polymerization degree of 6 where four glucose molecules are bound to one trehalose molecule; and saccharide PV, still another non-reducing saccharide with a polymerization degree of 7 where five glucose molecules are bound to one trehalose molecule.

[4] = Maillard reaction (coloration with glycine, absorbance at 480 nm); assay type: physicochemical
Protocol: Solutions of 10% saccharide preparation PI, PII, PIII, PIV or PV prepared in Experiment 4 and 1% glycine in 50 mM phosphate buffer (pH7.0) were incubated at 100° C. for 90 minuets, cooled and determined in 1 cm cuvette for absorbance at 480 nm. As control, maltotriose, maltotetraose, maltopentaose, maltohexaose and maltoheptaose which were used as the starting materials were treated similarly as above and determined for absorbance at 480 nm.
10% High-purity trehalose preparation, purity of 99.5%, obtained by the method in Experiment 17 and 1% glycine in 50 mM phosphate buffer (pH7.0) was incubated at 100° C. for 90 minutes, cooled and measured in lcm cuvette for absorbance at 480 nm. As control, glucose and maltose were treated similarly as above and then measured for absorbance at 480 nm.

Question: With OC[C@H]1O[C@H](O[C@H]2O[C@H](CO)[C@@H](O[C@H]3O[C@H](CO)[C@@H](O[C@H]4O[C@H](CO)[C@@H](O[C@H]5O[C@H](CO)[C@@H](O)[C@H](O)[C@H]5O)[C@H](O)[C@H]4O)[C@H](O)[C@H]3O)[C@H](O)[C@H]2O)[C@H](O)[C@@H](O)[C@@H]1O [PIII, alpha-maltotriosyl trehalose] as the compound, how does the “Degradation by pig kidney trehalase (in words)” value (pig kidney trehalase) read?
Answer: degradable into glucose by the trehalase

Question: And the “DE of saccharide preparation” value [1]?
Answer: 0.10

Question: And the “Animal death at the possible highest dose” value (mice)?
Answer: no animal death was observed

Question: And the “Degradation by glucoamylase (in words)” value (glucoamylase)?
Answer: three glucose molecules and one trehalose molecule

Question: And the “Molar ratio (glucose/trehalose)” value (glucoamylase; degradation product by glucoamylase)?
Answer: 3.02

Question: And the “Glucose in degradation product by glucoamylase” value (glucoamylase; pH4.5, 40° C., 6 hours)?
Answer: 61.4%

Question: What about the “Trehalose in degradation product by glucoamylase” value (glucoamylase; pH4.5, 40° C., 6 hours) of the same compound?
Answer: 38.6%

Question: What about the “Degradation by alpha-amylase (in words)” value [2] of the same compound?
Answer: degraded by alpha-amylase into smaller oligosaccharides

Question: What about the “G1 (glucose) in degradation product by alpha-amylase” value ([2]; pH6.9, 37° C., 18 hours) of the same compound?
Answer: 1.2%

Question: And the “G2 (maltose) in degradation product by alpha-amylase” value ([2]; pH6.9, 37° C., 18 hours)?
Answer: 33.0%

Question: What about the “G3 (maltotriose) in degradation product by alpha-amylase” value ([2]; pH6.9, 37° C., 18 hours) of the same compound?
Answer: 0%

Question: And the “PI in degradation product by alpha-amylase” value ([2]; pH6.9, 37° C., 18 hours)?
Answer: 61.0%

Question: What about the “PII in degradation product by alpha-amylase” value ([2]; pH6.9, 37° C., 18 hours) of the same compound?
Answer: 4.8%

Question: What about the “Degradation by acetone-pulverized rat small intestine enzyme (in words)” value [3] of the same compound?
Answer: degradable

Question: And the “Glucose in degradation product by acetone-powdered rat small intestine enzyme” value ([3]; pH6.0, 37° C., 18 hours)?
Answer: 62.0%

Question: And the “Others in degradation product by acetone-powdered rat small intestine enzyme” value ([3]; pH6.0, 37° C., 18 hours)?
Answer: 0.4%

Question: What about the “Trehalose in degradation product by acetone-powdered rat small intestine enzyme” value ([3]; pH6.0, 37° C., 18 hours) of the same compound?
Answer: 37.6%

Question: And the “Degradation by beta-amylase (in words)” value (beta-amylase)?
Answer: degraded into one maltose molecule and one saccharide PI molecule

Question: What about the “Coloration degree at 480 nm” value ([4]; 10% saccharide, 1% glycine, 50 mM phosphate buffer pH7.0, 100° C., 90 minutes, 1 cm cuvette) of the same compound?
Answer: 0.012

Question: What about the “Coloration degree relative to maltooligosaccharides as material” value ([4]; 480 nm, with glycine) of the same compound?
Answer: 3-6%
